Assay: Phase 1 clinical study / Study 101: plasma epinephrine pharmacokinetics
Assay type: in vivo
Details: human, 0.3 mg IM, read-out: mean baseline-corrected Cmax

Cmax: 184 µg/mL
SMILES: CNC[C@H](O)c1ccc(O)c(O)c1 [Epinephrine IM, epinephrine]
